From patent publication US7205297B2, “Substituted 5-alkynyl pyrimidines having neurotrophic activity” (Krenitsky Pharmaceuticals, Inc., priority 2000, dated 2007)

test system: PC12 cells; experiment: Choline acetyltransferase (ChAT) assay in NGF-treated PC12 cells; format: cell-based, rat; settings: 3 days incubation with test compound, versus NGF alone
Description: Cultured PC12 cells (rat adrenal pheochromocytoma from ATCC) have receptors for NGF. Responses include promotion of neurite outgrowth and elevation of choline acetyltransferase (ChAT) (L. A. Greene and A. S. Tischler, Cell Neurobiol., 3, 373 (1982)).
The following assay is modified from that described in H L White and P W Scates, Neurochem. Res., 16, 63 (1991). PC12 cells were cultured at 37° C. in RPMI supplemented with HEPES buffer, pH7.5 (to 10 mM), fetal bovine serum, horse serum, glutamine, penicillin, streptomycin and non-essential amino acids. Cultures were split 1:3 every 3 to 4 days. Exponentially dividing cells were plated into fresh medium on collagen-coated 12-well plastic dishes (10^5 cells/well). After allowing one day for cell attachment, the medium was replaced with low serum medium, with or without test compounds with each condition in triplicate. The medium may contain up to 0.2% ethanol, which was used as a solvent for most compounds tested. Cells were examined for morphological changes using an Olympus IMT-2 inverted research microscope. After 3 days incubation with test compounds, medium was removed and replaced with 0.2 ml of lysis and ChAT assay mixture. The plates were incubated at 37° C. for 2 hours and then placed into a freezer at −20° C.
Compounds are judged NGF-like in this primary screen if they (1) increase the activity of ChAT, (2) enhance NGF-stimulated neurite outgrowth or (3) potentiate or appear additive with the action of NGF itself.
The assay mixture contained 100 mM phosphate, pH7.4, 0.1% NP40, 150 mM NaCl, 1.5 mM choline, 10 mM EDTA, 0.1 mM eserine, 0.1 mM acetyl-coenzyme A and about 0.5 uCi (40–70 Ci/mol) [14C]acetyl-coenzyme A in each ml of mixture. Thawed and lysed cell reaction mixtures were diluted to 1 ml with water and transferred to 7 ml scintillation vials containing 5 ml of extraction/scintillation fluid solution (50 mg triphenyl borate, 50 mg PPO, 20 mg POPOP per 100 ml of 20% acetonitrile/80% toluene) and vortexed for 10 seconds. After all 20 diluted well contents were transferred and mixed, all the vials were vortexed again for 30 seconds, rotated for about 2 hours, and then vortexed once more. The vials were centrifuged at 3000 rpm (rmax.=16 cm) for 15 minutes and then counted in a Beckman LS6500 scintillation counter. Background counts from reaction mixtures with extracts from non-stimulated cells (no NGF and no test compound) were subtracted from reaction product counts before comparisons of ChAT activities were made.
The following data were obtained for representative compounds of the present invention which (1) increased the activity of choline acetyltransferase ChAT), (2) enhanced NGF-stimulated neurite outgrowth and/or (3) potentiated or appeared additive with the action of NGF itself. The concentration at which the test compound doubled the ChAT activity over the activity with NGF alone (no test compound) was recorded as the EC2x value.

Row | Compound | EC2× (concentration at which the test compound doubled the ChAT activity over the activity with NGF alone) [µM]
1 | O[C@H]1CC[C@H](Nc2ncncc2C#Cc2ccc(Cl)cc2)CC1 [Example 4, 5-(4-chlorophenylethynyl)-4-(trans-4-hydroxycyclohexylamino) pyrimidine] | 0.2
2 | Nc1ncc(C#Cc2ccccc2)c(N[C@H]2CC[C@H](O)CC2)n1 [Example 9, 2-amino-4-(trans-4-hydroxycyclohexylamino)-5-phenylethynylpyrimidine] | 0.1
3 | Nc1ncc(C#Cc2ccc(Cl)cc2)c(N[C@H]2CC[C@H](O)CC2)n1 [Example 12, 2-amino-5-(4-chlorophenylethynyl)-4-(trans-4-hydroxycyclohexylamino)pyrimidine] | 0.2
4 | Nc1ncc(C#Cc2ccc(Cl)cc2)c(NCCO)n1 [Example 13, 2-amino-5-(4-chlorophenylethynyl)-4-(2-hyroxyethylamino) pyrimidine] | 0.3
5 | Nc1ncc(C#Cc2ccc(Cl)cc2)c(NCCOCCO)n1 [Example 14, 2-amino-5-(4-chlorophenylethynyl)-4-[2-(2-hydroxyethoxy)ethylamino]pyrimidine] | 0.5
6 | Nc1ncc(C#Cc2ccc(Cl)cc2)c(N[C@H]2CC[C@@H](O)CC2)n1 [Example 23, 2-amino-5-(4-chlorophenylethynyl)-4-(4-cis-hydroxycyclohexylamino)pyrimidine] | 0.3
7 | CCc1ccc(C#Cc2cnc(N)nc2N[C@H]2CC[C@H](O)CC2)cc1.Cl [Example 26, 2-amino-5-(4-ethylphenylethynyl)-4-(4-trans-hydroxycyclohexylamino) pyrimidine hydrochloride] | 0.2

test system: not given; experiment: not given; settings: not given

Row | Compound | melting point
8 | Cl.Oc1ccc(Nc2ncncc2C#Cc2ccccc2)cc1 | 223 to 225 °C (dec.)
9 | COc1ccc(C#Cc2cnc(N)nc2Nc2ccc(O)cc2)cc1.Cl | 220 to 230 °C (dec.)
10 | O[C@H]1CC[C@H](Nc2ncncc2C#Cc2ccc(Cl)cc2)CC1 (hydrate or solvate) [Example 4, 5-(4-chlorophenylethynyl)-4-(trans-4-hydroxycyclohexylamino) pyrimidine] | 151 to 155 °C
11 | Nc1ncc(C#Cc2ccc(Cl)cc2)c(N[C@H]2CC[C@H](O)CC2)n1 [Example 12, 2-amino-5-(4-chlorophenylethynyl)-4-(trans-4-hydroxycyclohexylamino)pyrimidine] | 215 to 218 °C
12 | Nc1ncc(C#Cc2ccc(Cl)cc2)c(NCCOCCO)n1 [Example 14, 2-amino-5-(4-chlorophenylethynyl)-4-[2-(2-hydroxyethoxy)ethylamino]pyrimidine] | 176 to 180 °C
13 | Nc1ncc(C#Cc2ccccc2)c(NCCOCCO)n1 [Example 19, 2-amino-4-[2-(2-hydroxyethoxy)ethylamino]-5-phenylethynyl pyrimidine] | 128 to 129 °C
14 | Nc1ncc(C#Cc2ccc(Cl)cc2)c(OC2CCC(=O)CC2)n1 [Example 41, 2-amino-5-(4-chlorophenylethynyl)-4-(4-oxocyclohexyloxy) pyrimidine] | 168 to 172 °C
